Measurements reported in patent US20250206732A1, “COMPOUNDS AND METHODS FOR THE TARGETED DEGRADATION OF KRAS” (Arvinas Operations, Inc., priority 2022, published 2025).

Biological target: T1, AsPC-1 HiBiT-KRASG12D (Homo sapiens, UniProt P01116, G12D)
T1 construct: insert the HiBiT tag onto the N-terminus of one or more of the endogenous KRAS alleles; endogenous in cells; host or cells: AsPC-1 (ATCC CRL-1682), CRISPR-Cas9 knock-in clone, one tagged allele
Experiment: HiBiT degradation assay (G12D), AsPC-1 HiBiT-KRASG12D cells
Type: cell-based
Settings: 24 hours treatment; for Dmax: ASPC1, AsPC-1 HiBiT-KRASG12D cells, maximum degradation observed; for DC50: AsPC-1 HiBiT-KRASG12D cells, HiBiT luminescence
Summary of the method: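 Steps: treat HiBiT-KRASG12D AsPC-1 cells with compound for 24 hours; add alamar blue to 1× and incubate 4 hours to assess viability; wash with PBS; add HiBiT lytic detection reagent, incubate 45 minutes at room temperature; read luminescence. Viability fluorescence is normalized to DMSO wells.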

T1 sequence (P01116 1-188 isoform P01116-2 G12D): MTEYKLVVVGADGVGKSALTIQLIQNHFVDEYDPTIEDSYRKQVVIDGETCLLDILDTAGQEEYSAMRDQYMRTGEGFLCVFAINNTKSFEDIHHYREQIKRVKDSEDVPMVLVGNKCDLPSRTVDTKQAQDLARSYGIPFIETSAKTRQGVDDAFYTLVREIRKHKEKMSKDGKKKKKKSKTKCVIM

Compound	Dmax [%]	DC50 [nM]
CCc1cccc2cc(O)cc(-c3ncc4c(N5CC6CCC(C5)N6)nc(OC[C@@]56CCCN5[C@H](COC(=O)N5CCC(Oc7cc([C@@H](C(=O)N8C[C@H](O)C[C@H]8C(=O)N[C@@H](C)c8ccc(-c9scnc9C)cc8)C(C)C)on7)CC5)CC6)nc4c3F)c12 [Compound 118, [(3S,7aS)-7a-{[(4-{3,8-diazabicyclo[3.2.1]octan-3-yl}-7-(8-ethyl-3-hydroxynaphthalen-1-yl)-8-fluoropyrido[4,3-d]pyrimidin-2-yl)oxy]methyl}-hexahydro-1H-pyrrolizin-3-yl]methyl 4-({5-[(2S)-1-[(2S,4R)-4-hydroxy-2-{[(1S)-1-[4-(4-methyl-1,3-thiazol-5-yl)phenyl]ethyl]carbamoyl}pyrrolidin-1-yl]-3-methyl-1-oxobutan-2-yl]-1,2-oxazol-3-yl}oxy)piperidine-1-carboxylate]	20 to 60	600 to 1000
CCc1cccc2cc(O)cc(-c3ncc4c(N5CC6CCC(C5)N6)nc(OC[C@]56CCCN5[C@H](COC(=O)N5CCC(Oc7cc([C@@H](C(=O)N8C[C@H](O)C[C@H]8C(=O)N[C@@H](C)c8ccc(-c9scnc9C)cc8)C(C)C)on7)CC5)CC6)nc4c3F)c12 [Compound 119, [(3S,7aR)-7a-{[(4-{3,8-diazabicyclo[3.2.1]octan-3-yl}-7-(8-ethyl-3-hydroxynaphthalen-1-yl)-8-fluoropyrido[4,3-d]pyrimidin-2-yl)oxy]methyl}-hexahydro-1H-pyrrolizin-3-yl]methyl 4-({5-[(2S)-1-[(2S,4R)-4-hydroxy-2-{[(1S)-1-[4-(4-methyl-1,3-thiazol-5-yl)phenyl]ethyl]carbamoyl}pyrrolidin-1-yl]-3-methyl-1-oxobutan-2-yl]-1,2-oxazol-3-yl}oxy)piperidine-1-carboxylate]	20 to 60	< 600
CCc1cccc2cc(O)cc(-c3ncc4c(N5CC6CCC(C5)N6)nc(OC[C@]56CCCN5[C@H](COC(=O)N5CCN(c7cc([C@H](C(=O)N8C[C@H](O)C[C@H]8C(=O)N[C@@H](C)c8ccc(-c9scnc9C)cc8)C(C)C)on7)C[C@H]5C)CC6)nc4c3F)c12 [Compound 120, [(3S,7aR)-7a-{[(4-{3,8-diazabicyclo[3.2.1]octan-3-yl}-7-(8-ethyl-3-hydroxynaphthalen-1-yl)-8-fluoropyrido[4,3-d]pyrimidin-2-yl)oxy]methyl}-hexahydro-1H-pyrrolizin-3-yl]methyl (2R)-4-{5-[(2R)-1-[(2S,4R)-4-hydroxy-2-{[(1S)-1-[4-(4-methyl-1,3-thiazol-5-yl)phenyl]ethyl]carbamoyl}pyrrolidin-1-yl]-3-methyl-1-oxobutan-2-yl]-1,2-oxazol-3-yl}-2-methylpiperazine-1-carboxylate]	80 to 100	< 600
CCc1cccc2cc(O)cc(-c3ncc4c(N5CC6CCC(C5)N6)nc(OC[C@]56CCCN5[C@H](COC(=O)N5CC(COc7cc([C@H](C(=O)N8C[C@H](O)C[C@H]8C(=O)N[C@@H](C)c8ccc(-c9scnc9C)cc8)C(C)C)on7)C5)CC6)nc4c3F)c12 [Compound 121, [(3S,7aR)-7a-{[(4-{3,8-diazabicyclo[3.2.1]octan-3-yl}-7-(8-ethyl-3-hydroxynaphthalen-1-yl)-8-fluoropyrido[4,3-d]pyrimidin-2-yl)oxy]methyl}-hexahydro-1H-pyrrolizin-3-yl]methyl 3-[({5-[(2R)-1-[(2S,4R)-4-hydroxy-2-{[(1S)-1-[4-(4-methyl-1,3-thiazol-5-yl)phenyl]ethyl]carbamoyl}pyrrolidin-1-yl]-3-methyl-1-oxobutan-2-yl]-1,2-oxazol-3-yl}oxy)methyl]azetidine-1-carboxylate]	80 to 100	< 600
CCc1cccc2cc(O)cc(-c3ncc4c(N5CC6CCC(C5)N6)nc(OC[C@]56CCCN5[C@H](COC(=O)N5CC(COc7cc([C@@H](C(=O)N8C[C@H](O)C[C@H]8C(=O)N[C@@H](C)c8ccc(-c9scnc9C)cc8)C(C)C)on7)C5)CC6)nc4c3F)c12 [Compound 122, [(3S,7aR)-7a-{[(4-{3,8-diazabicyclo[3.2.1]octan-3-yl}-7-(8-ethyl-3-hydroxynaphthalen-1-yl)-8-fluoropyrido[4,3-d]pyrimidin-2-yl)oxy]methyl}-hexahydro-1H-pyrrolizin-3-yl]methyl 3-[({5-[(2S)-1-[(2S,4R)-4-hydroxy-2-{[(1S)-1-[4-(4-methyl-1,3-thiazol-5-yl)phenyl]ethyl]carbamoyl}pyrrolidin-1-yl]-3-methyl-1-oxobutan-2-yl]-1,2-oxazol-3-yl}oxy)methyl]azetidine-1-carboxylate]	20 to 60	600 to 1000
CCc1cccc2cc(O)cc(-c3ncc4c(N5CC6CCC(C5)N6)nc(OC[C@]56CCCN5[C@H](COC(=O)N5CCN(c7cc([C@H](C(=O)N8C[C@H](O)C[C@H]8C(=O)N[C@@H](C)c8ccc(-c9scnc9C)cc8)C(C)C)on7)[C@@H](C)C5)CC6)nc4c3F)c12 [Compound 123, [(3S,7aR)-7a-{[(4-{3,8-diazabicyclo[3.2.1]octan-3-yl}-7-(8-ethyl-3-hydroxynaphthalen-1-yl)-8-fluoropyrido[4,3-d]pyrimidin-2-yl)oxy]methyl}-hexahydro-1H-pyrrolizin-3-yl]methyl (3S)-4-{5-[(2R)-1-[(2S,4R)-4-hydroxy-2-{[(1S)-1-[4-(4-methyl-1,3-thiazol-5-yl)phenyl]ethyl]carbamoyl}pyrrolidin-1-yl]-3-methyl-1-oxobutan-2-yl]-1,2-oxazol-3-yl}-3-methylpiperazine-1-carboxylate]	80 to 100	< 600
CCc1cccc2cc(O)cc(-c3ncc4c(N5CC6CCC(C5)N6)nc(OC[C@]56CCCN5[C@H](COC(=O)N5CCN(c7cc([C@@H](C(=O)N8C[C@H](O)C[C@H]8C(=O)N[C@@H](C)c8ccc(-c9scnc9C)cc8)C(C)C)on7)[C@@H](C)C5)CC6)nc4c3F)c12 [Compound 124, [(3S,7aR)-7a-{[(4-{3,8-diazabicyclo[3.2.1]octan-3-yl}-7-(8-ethyl-3-hydroxynaphthalen-1-yl)-8-fluoropyrido[4,3-d]pyrimidin-2-yl)oxy]methyl}-hexahydro-1H-pyrrolizin-3-yl]methyl (3S)-4-{5-[(2S)-1-[(2S,4R)-4-hydroxy-2-{[(1S)-1-[4-(4-methyl-1,3-thiazol-5-yl)phenyl]ethyl]carbamoyl}pyrrolidin-1-yl]-3-methyl-1-oxobutan-2-yl]-1,2-oxazol-3-yl}-3-methylpiperazine-1-carboxylate]	< 20	< 600
CCc1cccc2cc(O)cc(-c3ncc4c(N5CC6CCC(C5)N6)nc(OC[C@]56CCCN5[C@H](COC(=O)N5CCN(c7cc([C@@H](C(=O)N8C[C@H](O)C[C@H]8C(=O)N[C@@H](C)c8ccc(-c9scnc9C)cc8)C(C)C)on7)C[C@H]5C)CC6)nc4c3F)c12 [Compound 125, [(3S,7aR)-7a-{[(4-{3,8-diazabicyclo[3.2.1]octan-3-yl}-7-(8-ethyl-3-hydroxynaphthalen-1-yl)-8-fluoropyrido[4,3-d]pyrimidin-2-yl)oxy]methyl}-hexahydro-1H-pyrrolizin-3-yl]methyl (2R)-4-{5-[(2S)-1-[(2S,4R)-4-hydroxy-2-{[(1S)-1-[4-(4-methyl-1,3-thiazol-5-yl)phenyl]ethyl]carbamoyl}pyrrolidin-1-yl]-3-methyl-1-oxobutan-2-yl]-1,2-oxazol-3-yl}-2-methylpiperazine-1-carboxylate]	20 to 60	600 to 1000
CCc1cccc2cc(O)cc(-c3ncc4c(N5CC6CCC(C5)N6)nc(OC[C@@]56CCCN5[C@H](COC(=O)N5CC(Oc7cc([C@H](C(=O)N8C[C@H](O)C[C@H]8C(=O)N[C@@H](C)c8ccc(-c9scnc9C)cc8)C(C)C)on7)C5)CC6)nc4c3F)c12 [Compound 126, [(3S,7aS)-7a-{[(4-{3,8-diazabicyclo[3.2.1]octan-3-yl}-7-(8-ethyl-3-hydroxynaphthalen-1-yl)-8-fluoropyrido[4,3-d]pyrimidin-2-yl)oxy]methyl}-hexahydro-1H-pyrrolizin-3-yl]methyl 3-({5-[(2R)-1-[(2S,4R)-4-hydroxy-2-{[(1S)-1-[4-(4-methyl-1,3-thiazol-5-yl)phenyl]ethyl]carbamoyl}pyrrolidin-1-yl]-3-methyl-1-oxobutan-2-yl]-1,2-oxazol-3-yl}oxy)azetidine-1-carboxylate]	80 to 100	< 600
CCc1cccc2cc(O)cc(-c3ncc4c(N5CC6CCC(C5)N6)nc(OC[C@@]56CCCN5[C@H](COC(=O)N5CC(Oc7cc([C@@H](C(=O)N8C[C@H](O)C[C@H]8C(=O)N[C@@H](C)c8ccc(-c9scnc9C)cc8)C(C)C)on7)C5)CC6)nc4c3F)c12 [Compound 127, [(3S,7aS)-7a-{[(4-{3,8-diazabicyclo[3.2.1]octan-3-yl}-7-(8-ethyl-3-hydroxynaphthalen-1-yl)-8-fluoropyrido[4,3-d]pyrimidin-2-yl)oxy]methyl}-hexahydro-1H-pyrrolizin-3-yl]methyl 3-({5-[(2S)-1-[(2S,4R)-4-hydroxy-2-{[(1S)-1-[4-(4-methyl-1,3-thiazol-5-yl)phenyl]ethyl]carbamoyl}pyrrolidin-1-yl]-3-methyl-1-oxobutan-2-yl]-1,2-oxazol-3-yl}oxy)azetidine-1-carboxylate]	< 20	600 to 1000
